Measured values published in ChEMBL document CHEMBL1135114, “Syntheses and bioactivities of novel carbamates combining platelet activating factor (PAF) receptor antagonist with thromboxane synthase inhibitor (TxSI)” (Bioorg Med Chem Lett, 2002).

What was measured:
Rattus norvegicus [1] = experiment: Inhibition of serum TXB2 production in the rats after peroral administration; format: functional; details: po
Oryctolagus cuniculus = organism: Oryctolagus cuniculus; experiment: The compound was tested for inhibition of Platelet activating factor (PAF) induced platelet aggregation in rabbit platelet rich plasma; format: functional
Mus musculus [2] = experiment: Ability to protect mice from the lethal effect of Platelet activating factor on po administration of compound; format: functional
Thromboxane-A synthase = target: T1, Thromboxane-A synthase (Homo sapiens, UniProt P24557); experiment: Thromboxane A2 synthase inhibitory activity was measured from inhibition of thromboxane B2 production in human platelet microsomes; design: species or system Microsome
T1 sequence (P24557 whole entry): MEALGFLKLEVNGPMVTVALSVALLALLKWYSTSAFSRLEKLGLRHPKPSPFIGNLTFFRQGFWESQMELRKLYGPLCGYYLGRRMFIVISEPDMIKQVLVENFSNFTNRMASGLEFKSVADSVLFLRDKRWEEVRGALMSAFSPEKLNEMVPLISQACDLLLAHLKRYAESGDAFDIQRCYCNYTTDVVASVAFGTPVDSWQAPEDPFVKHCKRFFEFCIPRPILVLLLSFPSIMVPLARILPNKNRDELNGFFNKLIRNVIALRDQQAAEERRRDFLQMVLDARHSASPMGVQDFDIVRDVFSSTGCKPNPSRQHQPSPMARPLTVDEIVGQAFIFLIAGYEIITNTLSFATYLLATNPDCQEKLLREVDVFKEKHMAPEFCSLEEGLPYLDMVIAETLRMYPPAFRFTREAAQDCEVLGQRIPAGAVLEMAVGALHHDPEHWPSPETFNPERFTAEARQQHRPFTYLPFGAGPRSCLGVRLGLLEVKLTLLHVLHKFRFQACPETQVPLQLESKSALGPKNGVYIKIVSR

Mus musculus [3] = experiment: Ability to protect mice from the lethal effect of Platelet activating factor on iv administration of compound; format: functional
Rattus norvegicus [4] = experiment: Inhibition of serum TXB2 production in the rats after intravenous administration; format: functional

SMILES | ED50 (Rattus norvegicus [1]) [mg/kg] | IC50 (Oryctolagus cuniculus) [nM] | ED50 (Mus musculus [2]) [mg/kg] | IC50 (Thromboxane-A synthase) [nM] | ED50 (Mus musculus [3]) [mg/kg] | ED50 (Rattus norvegicus [4]) [mg/kg]
CCOC(=O)CCCC/[N+]([O-])=C(/c1cccnc1)c1cccc(COC(=O)N2CCc3c(sc4c3C(c3ccccc3Cl)=NC(C)c3nnc(C)n3-4)C2)c1 (stereo not drawn) | > 10 | 41 | > 10 | 69 | 0.2 | 0.1
O=C(O)CCCC/C=C(/c1ccccc1)c1cccnc1 [ISBOGREL] | 0.05 | – | – | – | – | 0.01
CCOC(=O)CCCC/[N+]([O-])=C(/c1cccnc1)c1cccc(CN2CCc3c(sc4c3C(c3ccccc3Cl)=NC(C)c3nnc(C)n3-4)C2)c1 (stereo not drawn) | > 10 | 47 | > 10 | 60 | 0.2 | 0.1
O=C(O)/C=C/c1ccc(Cn2ccnc2)cc1 [OZAGREL] | 0.1 | – | – | – | – | 0.02
CCOC(=O)CCCC/[N+]([O-])=C(/c1cccnc1)c1cccc(CN2CCc3c(sc4c3C(c3ccccc3Cl)=NCc3nnc(C)n3-4)C2)c1 | > 10 | 190 | > 10 | 67 | 0.8 | 0.1
CCOC(=O)CCCC/[N+]([O-])=C(/c1cccnc1)c1cccc(COC(=O)N2CCc3c(sc4c3C(c3ccccc3Cl)=NCc3nnc(C)n3-4)C2)c1 | > 10 | 139 | > 10 | 62 | 0.7 | 0.1
